# How the values were obtained:
# [1] = target: T1, MLK1 (Homo sapiens, UniProt P80192); experiment: DiscoveRx KinomeScan binding; settings: Entrez MAP3K9
# T1 construct: purchased DiscoveRx scanEDGE panel (KinomeScan)
# [2] = target: T2, LKB1 (Homo sapiens, UniProt Q15831); experiment: DiscoveRx KinomeScan binding; settings: Entrez STK11
# T2 construct: purchased DiscoveRx scanEDGE panel (KinomeScan)
# [3] = target: T3, JNK1 (Homo sapiens, UniProt P45983); experiment: DiscoveRx KinomeScan binding; settings: Entrez MAPK8
# T3 construct: purchased DiscoveRx scanEDGE panel
# [4] = target: T4, ALK (Homo sapiens, UniProt Q9UM73); experiment: DiscoveRx KinomeScan binding
# T4 construct: purchased DiscoveRx (KINOMEscan scanEDGE panel)
# [5] = target: T5, KIT(D816V) (Homo sapiens, UniProt P10721, D816V); experiment: DiscoveRx KinomeScan binding
# T5 construct: purchased DiscoveRx scanEDGE panel (KinomeScan)
# [6] = target: T6, SRC (Homo sapiens, UniProt P12931); experiment: DiscoveRx KinomeScan binding
# T6 construct: purchased DiscoveRx scanEDGE panel
# T6 sequence (P12931 whole entry): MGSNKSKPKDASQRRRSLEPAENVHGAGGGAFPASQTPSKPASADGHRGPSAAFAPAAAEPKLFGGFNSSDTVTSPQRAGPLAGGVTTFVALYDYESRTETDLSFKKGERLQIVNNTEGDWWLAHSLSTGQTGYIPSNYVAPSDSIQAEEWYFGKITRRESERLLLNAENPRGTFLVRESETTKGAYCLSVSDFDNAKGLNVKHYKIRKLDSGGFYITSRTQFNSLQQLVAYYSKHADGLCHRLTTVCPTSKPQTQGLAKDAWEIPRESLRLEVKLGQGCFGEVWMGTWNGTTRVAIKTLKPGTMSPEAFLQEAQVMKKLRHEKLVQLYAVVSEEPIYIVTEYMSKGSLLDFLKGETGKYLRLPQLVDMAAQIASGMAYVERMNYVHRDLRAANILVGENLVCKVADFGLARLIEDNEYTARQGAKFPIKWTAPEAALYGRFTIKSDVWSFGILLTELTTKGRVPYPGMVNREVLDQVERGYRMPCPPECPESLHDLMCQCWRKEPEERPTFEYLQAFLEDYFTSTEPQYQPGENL
# [7] = target: T7, MEK1 (Homo sapiens, UniProt Q02750); experiment: DiscoveRx KinomeScan binding; settings: Entrez MAP2K1
# T7 construct: purchased DiscoveRx scanEDGE panel (KinomeScan)
# [8] = target: T8, CSF1R (Homo sapiens, UniProt P07333); experiment: DiscoveRx KinomeScan binding
# T8 construct: purchased DiscoveRx scanEDGE panel
# [9] = target: T9, ABL1---nonphosphorylated (Homo sapiens, UniProt P00519); experiment: DiscoveRx KinomeScan binding; settings: Entrez ABL1
# T9 construct: purchased DiscoveRx (KINOMEscan scanEDGE panel)
# [10] = target: T10, DCAMKL1 (Homo sapiens, UniProt O15075); experiment: DiscoveRx KinomeScan binding; settings: Entrez DCLK1
# T10 construct: purchased DiscoveRx scanEDGE panel
# [11] = target: T11, TIE2 (Homo sapiens, UniProt Q02763); experiment: DiscoveRx KinomeScan binding; settings: Entrez TEK
# T11 construct: purchased DiscoveRx scanEDGE panel
# T11 sequence (Q02763 23-1124): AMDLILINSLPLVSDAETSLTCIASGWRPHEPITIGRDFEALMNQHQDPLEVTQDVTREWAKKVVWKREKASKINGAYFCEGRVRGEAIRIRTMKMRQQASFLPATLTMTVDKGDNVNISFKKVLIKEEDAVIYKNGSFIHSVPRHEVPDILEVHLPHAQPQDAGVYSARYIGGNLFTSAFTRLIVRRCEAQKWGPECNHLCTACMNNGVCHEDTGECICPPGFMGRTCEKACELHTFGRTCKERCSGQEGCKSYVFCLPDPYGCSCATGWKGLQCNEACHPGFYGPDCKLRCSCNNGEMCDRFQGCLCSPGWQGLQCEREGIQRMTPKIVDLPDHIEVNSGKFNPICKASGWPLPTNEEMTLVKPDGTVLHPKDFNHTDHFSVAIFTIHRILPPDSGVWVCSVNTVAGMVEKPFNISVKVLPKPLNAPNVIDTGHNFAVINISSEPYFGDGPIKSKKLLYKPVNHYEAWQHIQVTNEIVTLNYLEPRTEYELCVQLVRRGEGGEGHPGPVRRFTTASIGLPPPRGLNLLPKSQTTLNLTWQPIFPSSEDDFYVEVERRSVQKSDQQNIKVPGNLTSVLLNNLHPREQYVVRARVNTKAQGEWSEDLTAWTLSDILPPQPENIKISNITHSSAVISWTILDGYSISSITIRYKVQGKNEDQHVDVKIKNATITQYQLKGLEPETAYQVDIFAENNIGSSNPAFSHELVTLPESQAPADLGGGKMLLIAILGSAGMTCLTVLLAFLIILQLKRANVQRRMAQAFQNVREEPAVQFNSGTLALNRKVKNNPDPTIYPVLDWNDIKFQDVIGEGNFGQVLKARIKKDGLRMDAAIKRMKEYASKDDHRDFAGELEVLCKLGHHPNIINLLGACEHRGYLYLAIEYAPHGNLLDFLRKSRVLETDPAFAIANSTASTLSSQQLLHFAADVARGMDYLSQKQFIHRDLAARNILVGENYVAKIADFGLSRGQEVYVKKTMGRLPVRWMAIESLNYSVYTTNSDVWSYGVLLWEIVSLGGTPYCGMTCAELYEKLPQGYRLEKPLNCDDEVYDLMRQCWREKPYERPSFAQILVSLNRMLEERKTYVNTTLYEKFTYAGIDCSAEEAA
# [12] = target: T12, DYRK1B (Homo sapiens, UniProt Q9Y463); experiment: DiscoveRx KinomeScan binding
# T12 construct: purchased DiscoveRx scanEDGE panel
# [13] = test system: 308 kinases; experiment: Kinase activity profiling, Millipore KinaseProfiler; assay type: biochemical
# [14] = target: T13, JAK3(JH1domain---catalytic) (Homo sapiens, UniProt P52333); experiment: DiscoveRx KinomeScan binding
# T13 construct: JAK3(JH1domain---catalytic); purchased DiscoveRx scanEDGE panel
# [15] = target: T14, CDK3 (Homo sapiens, UniProt Q00526); experiment: DiscoveRx KinomeScan binding
# T14 construct: purchased DiscoveRx (KINOMEscan scanEDGE panel)
# [16] = target: T15, ABL1(E255K)---phosphorylated (Homo sapiens, UniProt P00519, E255K); experiment: DiscoveRx KinomeScan binding; settings: Entrez ABL1
# T15 construct: purchased DiscoveRx (KINOMEscan scanEDGE panel)
# [17] = target: T16, RET (Homo sapiens, UniProt P07949); experiment: DiscoveRx KinomeScan binding
# T16 construct: purchased DiscoveRx scanEDGE panel
# [18] = target: T17, MAP3K4 (Homo sapiens, UniProt Q9Y6R4); experiment: DiscoveRx KinomeScan binding
# T17 construct: purchased DiscoveRx scanEDGE panel (KinomeScan)
# [19] = target: T18, FLT3 (Homo sapiens, UniProt P36888); experiment: DiscoveRx KinomeScan binding
# T18 construct: purchased DiscoveRx scanEDGE panel
# [20] = target: T19, CSNK1G2 (Homo sapiens, UniProt P78368); experiment: DiscoveRx KinomeScan binding
# T19 construct: purchased DiscoveRx scanEDGE panel
# [21] = target: T20, ADCK3 (Homo sapiens, UniProt Q8NI60); experiment: DiscoveRx KinomeScan binding; settings: Entrez CABC1
# T20 construct: purchased DiscoveRx (KINOMEscan scanEDGE panel)
# [22] = target: T21, ULK2 (Homo sapiens, UniProt Q8IYT8); experiment: DiscoveRx KinomeScan binding
# T21 construct: purchased DiscoveRx scanEDGE panel
# [23] = target: T22, PLK1 (Homo sapiens, UniProt P53350); experiment: DiscoveRx KinomeScan binding
# T22 construct: purchased DiscoveRx scanEDGE panel
# [24] = target: T23, PIK3CG (Homo sapiens, UniProt P48736); experiment: DiscoveRx KinomeScan binding
# T23 construct: purchased DiscoveRx scanEDGE panel
# [25] = target: T24, AXL (Homo sapiens, UniProt P30530); experiment: DiscoveRx KinomeScan binding
# T24 construct: purchased DiscoveRx (KINOMEscan scanEDGE panel)
# [26] = target: T25, AURKB (Homo sapiens, UniProt Q96GD4); experiment: DiscoveRx KinomeScan binding
# T25 construct: purchased DiscoveRx (KINOMEscan scanEDGE panel)
# T25 sequence (Q96GD4 whole entry): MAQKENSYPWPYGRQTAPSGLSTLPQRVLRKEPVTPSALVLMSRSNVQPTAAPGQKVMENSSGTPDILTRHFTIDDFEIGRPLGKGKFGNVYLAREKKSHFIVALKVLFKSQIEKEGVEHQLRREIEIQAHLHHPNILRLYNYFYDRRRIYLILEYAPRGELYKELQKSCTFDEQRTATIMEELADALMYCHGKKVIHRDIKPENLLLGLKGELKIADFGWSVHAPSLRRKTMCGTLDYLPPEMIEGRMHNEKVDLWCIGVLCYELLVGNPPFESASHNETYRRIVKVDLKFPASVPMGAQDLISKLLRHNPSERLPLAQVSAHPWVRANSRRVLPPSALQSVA
# [27] = target: T26, SRPK3 (Homo sapiens, UniProt Q9UPE1); experiment: DiscoveRx KinomeScan binding
# T26 construct: purchased DiscoveRx scanEDGE panel
# T26 sequence (Q9UPE1 whole entry): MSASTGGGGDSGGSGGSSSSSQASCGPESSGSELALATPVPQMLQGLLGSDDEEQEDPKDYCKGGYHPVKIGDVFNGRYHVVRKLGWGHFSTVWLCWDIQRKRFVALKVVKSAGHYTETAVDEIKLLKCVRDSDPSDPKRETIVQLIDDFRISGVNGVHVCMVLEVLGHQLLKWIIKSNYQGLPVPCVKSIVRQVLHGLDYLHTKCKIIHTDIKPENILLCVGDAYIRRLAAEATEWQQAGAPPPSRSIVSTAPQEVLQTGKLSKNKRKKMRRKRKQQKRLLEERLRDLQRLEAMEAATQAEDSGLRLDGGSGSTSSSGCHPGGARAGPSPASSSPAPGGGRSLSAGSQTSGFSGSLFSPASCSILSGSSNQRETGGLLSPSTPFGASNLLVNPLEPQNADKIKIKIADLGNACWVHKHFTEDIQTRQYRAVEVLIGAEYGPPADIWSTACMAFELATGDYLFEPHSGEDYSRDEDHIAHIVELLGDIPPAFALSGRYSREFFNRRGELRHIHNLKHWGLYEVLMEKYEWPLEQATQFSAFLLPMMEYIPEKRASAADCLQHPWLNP
# [28] = target: T27, AKT2 (Homo sapiens, UniProt P31751); experiment: DiscoveRx KinomeScan binding
# T27 construct: purchased DiscoveRx (KINOMEscan scanEDGE panel)
# [29] = target: T28, IKK---beta (Homo sapiens, UniProt O14920); experiment: DiscoveRx KinomeScan binding; settings: Entrez IKBKB
# T28 construct: purchased DiscoveRx scanEDGE panel
# [30] = target: T29, MKNK1 (Homo sapiens, UniProt Q9BUB5); experiment: DiscoveRx KinomeScan binding
# T29 construct: purchased DiscoveRx scanEDGE panel (KinomeScan)
# [31] = target: T30, VEGFR2 (Homo sapiens, UniProt P35968); experiment: DiscoveRx KinomeScan binding; settings: Entrez KDR
# T30 construct: purchased DiscoveRx scanEDGE panel
# [32] = target: T31, ERBB2 (Homo sapiens, UniProt P04626); experiment: DiscoveRx KinomeScan binding
# T31 construct: purchased DiscoveRx scanEDGE panel
# [33] = target: T32, INSR (Homo sapiens, UniProt P06213); experiment: DiscoveRx KinomeScan binding
# T32 construct: purchased DiscoveRx scanEDGE panel
# [34] = target: T33, CDK7 (Homo sapiens, UniProt P50613); experiment: DiscoveRx KinomeScan binding
# T33 construct: purchased DiscoveRx (KINOMEscan scanEDGE panel)
# [35] = target: T34, BRAF(V600E) (Homo sapiens, UniProt P15056, V600E); experiment: DiscoveRx KinomeScan binding
# T34 construct: purchased DiscoveRx (KINOMEscan scanEDGE panel)
# [36] = target: T35, CSNK1D (Homo sapiens, UniProt P48730); experiment: DiscoveRx KinomeScan binding
# T35 construct: purchased DiscoveRx scanEDGE panel
# [37] = target: T36, ZAP70 (Homo sapiens, UniProt P43403); experiment: DiscoveRx KinomeScan binding
# T36 construct: purchased DiscoveRx (KinomeScan scanEDGE panel service)
# [38] = target: T37, MEK2 (Homo sapiens, UniProt P36507); experiment: DiscoveRx KinomeScan binding; settings: Entrez MAP2K2
# T37 construct: purchased DiscoveRx scanEDGE panel (KinomeScan)
# [39] = target: T38, IGF1R (Homo sapiens, UniProt P08069); experiment: DiscoveRx KinomeScan binding
# T38 construct: purchased DiscoveRx scanEDGE panel
# [40] = target: T39, ERBB4 (Homo sapiens, UniProt Q15303); experiment: DiscoveRx KinomeScan binding
# T39 construct: purchased DiscoveRx scanEDGE panel
# T39 sequence (Q15303 26-1308): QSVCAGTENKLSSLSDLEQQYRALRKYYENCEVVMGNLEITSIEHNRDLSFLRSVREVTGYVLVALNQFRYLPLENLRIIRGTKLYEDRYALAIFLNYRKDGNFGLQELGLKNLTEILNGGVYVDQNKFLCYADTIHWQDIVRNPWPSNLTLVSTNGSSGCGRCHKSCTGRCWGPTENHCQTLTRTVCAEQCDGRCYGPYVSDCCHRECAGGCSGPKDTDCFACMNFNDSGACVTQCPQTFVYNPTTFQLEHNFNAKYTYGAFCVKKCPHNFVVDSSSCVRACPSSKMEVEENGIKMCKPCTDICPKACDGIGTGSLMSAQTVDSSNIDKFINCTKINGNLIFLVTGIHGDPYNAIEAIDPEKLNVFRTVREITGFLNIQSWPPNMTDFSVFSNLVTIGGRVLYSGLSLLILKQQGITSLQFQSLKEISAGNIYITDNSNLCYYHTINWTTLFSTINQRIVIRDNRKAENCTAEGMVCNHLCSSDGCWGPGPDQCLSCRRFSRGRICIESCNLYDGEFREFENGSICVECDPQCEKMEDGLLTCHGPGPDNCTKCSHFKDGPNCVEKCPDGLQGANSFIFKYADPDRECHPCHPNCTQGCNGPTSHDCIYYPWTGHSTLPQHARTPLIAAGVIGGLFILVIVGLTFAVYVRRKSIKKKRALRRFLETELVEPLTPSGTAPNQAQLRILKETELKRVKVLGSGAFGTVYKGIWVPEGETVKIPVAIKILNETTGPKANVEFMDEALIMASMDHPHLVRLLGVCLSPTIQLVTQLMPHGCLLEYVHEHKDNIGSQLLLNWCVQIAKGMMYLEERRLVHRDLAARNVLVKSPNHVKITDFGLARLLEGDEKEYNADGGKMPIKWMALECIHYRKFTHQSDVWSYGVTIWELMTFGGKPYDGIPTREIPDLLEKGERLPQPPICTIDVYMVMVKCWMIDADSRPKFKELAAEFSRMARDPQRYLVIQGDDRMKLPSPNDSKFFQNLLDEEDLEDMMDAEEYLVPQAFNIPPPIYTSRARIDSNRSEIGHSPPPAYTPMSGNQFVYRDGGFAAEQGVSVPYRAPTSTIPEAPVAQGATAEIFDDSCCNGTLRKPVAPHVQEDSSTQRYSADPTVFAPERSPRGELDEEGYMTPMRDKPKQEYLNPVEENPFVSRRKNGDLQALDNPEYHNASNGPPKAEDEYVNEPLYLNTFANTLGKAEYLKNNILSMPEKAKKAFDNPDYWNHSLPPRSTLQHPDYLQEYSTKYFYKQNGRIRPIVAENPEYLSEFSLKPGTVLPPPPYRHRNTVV
# [41] = target: T40, KIT(V559D,T670I) (Homo sapiens, UniProt P10721, T670I/V559D); experiment: DiscoveRx KinomeScan binding
# T40 construct: purchased DiscoveRx scanEDGE panel (KinomeScan)
# T1 sequence (P80192 whole entry): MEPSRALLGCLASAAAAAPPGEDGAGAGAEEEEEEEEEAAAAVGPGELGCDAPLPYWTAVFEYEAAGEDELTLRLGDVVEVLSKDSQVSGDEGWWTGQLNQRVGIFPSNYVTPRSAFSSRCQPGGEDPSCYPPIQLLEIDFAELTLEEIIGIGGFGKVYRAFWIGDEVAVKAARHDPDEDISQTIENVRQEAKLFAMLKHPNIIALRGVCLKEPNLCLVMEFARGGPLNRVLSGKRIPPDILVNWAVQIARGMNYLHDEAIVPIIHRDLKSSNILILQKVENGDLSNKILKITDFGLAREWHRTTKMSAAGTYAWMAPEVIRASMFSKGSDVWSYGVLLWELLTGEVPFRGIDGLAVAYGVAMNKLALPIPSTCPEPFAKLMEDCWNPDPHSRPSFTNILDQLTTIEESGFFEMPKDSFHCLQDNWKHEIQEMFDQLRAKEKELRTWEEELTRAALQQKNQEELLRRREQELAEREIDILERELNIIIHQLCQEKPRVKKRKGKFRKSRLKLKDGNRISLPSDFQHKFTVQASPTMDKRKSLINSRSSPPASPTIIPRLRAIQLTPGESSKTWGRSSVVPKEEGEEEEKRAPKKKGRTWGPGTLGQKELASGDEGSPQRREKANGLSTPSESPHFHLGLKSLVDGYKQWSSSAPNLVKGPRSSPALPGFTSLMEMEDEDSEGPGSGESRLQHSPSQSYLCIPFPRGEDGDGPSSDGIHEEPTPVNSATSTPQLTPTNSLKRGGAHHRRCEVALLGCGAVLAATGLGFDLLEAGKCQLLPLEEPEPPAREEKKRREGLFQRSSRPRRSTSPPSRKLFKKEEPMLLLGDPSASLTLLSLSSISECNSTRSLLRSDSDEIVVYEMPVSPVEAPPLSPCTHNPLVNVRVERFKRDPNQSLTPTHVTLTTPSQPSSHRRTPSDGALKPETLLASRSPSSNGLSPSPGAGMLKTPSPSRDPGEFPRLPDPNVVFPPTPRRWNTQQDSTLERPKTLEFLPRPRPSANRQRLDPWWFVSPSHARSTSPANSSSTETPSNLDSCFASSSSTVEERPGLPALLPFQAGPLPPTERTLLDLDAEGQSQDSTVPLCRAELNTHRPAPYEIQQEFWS
structure (smiles),measurement,setting,value
COc1ccc(NC(=O)Nc2ccc3c(c2)C(=O)N([C@@H](C)CO)C[C@H](C)[C@H](CN(C)Cc2ccc4c(c2)OCO4)O3)cc1 [BRD-7880],Percent Control,[1],91%
same,Percent Control,[2],39%
same,Percent Control,[3],91%
same,Percent Control,[4],100%
same,Percent Control,[5],72%
same,Percent Control,[6],81%
same,Percent Control,[7],71%
same,Percent Control,[8],100%
same,Percent Control,[9],100%
same,Percent Control,[10],37%
same,Percent Control,[11],97%
same,Percent Control,[12],55%
same,significant inhibition (defined as activity<25% control) across 308 kinases,[13],inhibited aurora kinase B
same,Percent Control,[14],66%
same,Percent Control,[15],76%
same,Percent Control,[16],80%
same,Percent Control,[17],100%
same,Percent Control,[18],86%
same,Percent Control,[19],65%
same,Percent Control,[20],100%
same,Percent Control,[21],84%
same,Percent Control,[22],100%
same,Percent Control,[23],39%
same,Percent Control,[24],100%
same,Percent Control,[25],84%
same,binding to aurora kinase B,[26],0.5 % of control
same,Percent Control,[26]; AURKB,0.5%
same,Percent Control,[27],100%
same,Percent Control,[28],80%
same,Percent Control,[29],68%
same,Percent Control,[30],87%
same,Percent Control,[31],100%
same,Percent Control,[32],100%
same,Percent Control,[33],36%
same,Percent Control,[34],77%
same,Percent Control,[35],65%
same,Percent Control,[36],100%
same,Percent Control,[37],93%
same,Percent Control,[38],73%
same,Percent Control,[39],88%
same,Percent Control,[40],97%
same,Percent Control,[41],100%
